Measured values published in patent publication EP1377579B1 (Aventis Pharmaceuticals Inc., priority 2000, dated 2002).
Counter-ions that a name gives are not always drawn.

How the values were obtained:
cdk1/cyclin B = cdk1/cyclin B (Homo sapiens, UniProt P06493); assay: Cyclin-dependent kinase assay, cdk1/cyclin B; details: CDK1 IC50, nM, Histone H1, 10 µM ATP
MDA-MB-435 = assay: In vitro proliferation assay (MTT), MDA-MB-435; format: cell-based, human; details: Homo sapiens, MDA-MB-435, MTT assay; value (SD, n) where given; read-out: MB-435 Breast (IC50 µM)
Description: (§1) The proliferation of tumor cells can be measured using a tetrazolium salt-based assay known as the MTT (3-[4,5-Dimethylthiazol-2-yl]-2,5-diphenyltetrazolium bromide) assay. […] For the assay, the cell lines are plated onto 96 well plates at 1000 to 2500 cells/well (depending on the properties of the individual cell lines), left to attach and recover overnight. […] After 3 days, the cells are incubated with MTT dye (3-[4,5-Dimethylthiazol-2-yl]-2,5-diphenyltetrazolium bromide, Sigma # M5655, 10 mg/ml in Hank's Buffered Saline) to estimate the amount of live cells remaining vs. concentration for the test compounds. […] The MTT and culture medium is then removed from the cultures and 200 µl of DMSO is added to solubilize the dye from the cell layer. The absorbance at 570 nm is determined for each culture using a Spectramax plate reader (Molecular Devices).
(§2) IC50s were determined from the raw data from either the MTT or SRB assays.
(§3) All of the cell lines were obtained from American Type Tissue Collection, with the ATCC accession number in parentheticals. MCF-7 and MDA-MB-231 cells were grown in improved minimum essential medium (Biofluids) without phenol red, supplemented with 5 % fetal bovine serum, 0.01 mg/ml gentamicin and 3 mM L-glutamine.

PC-3 = assay: In vitro proliferation assay (MTT), PC-3; format: cell-based, human; details: Homo sapiens, PC-3, MTT assay; value (SD, n) where given; read-out: PC-3 Prostate (IC50 µM)
Description: as §1, §2, §3

cdk4/cyclin D1 = cdk4/cyclin D1 (Homo sapiens, UniProt P11802); assay: Cyclin-dependent kinase assay, cdk4/cyclin D1; format: biochemical; details: cyclin D1/cdk4; GST-pRb substrate, 10 µM ATP
cdk4/cyclin D1, sequence (P11802 whole entry): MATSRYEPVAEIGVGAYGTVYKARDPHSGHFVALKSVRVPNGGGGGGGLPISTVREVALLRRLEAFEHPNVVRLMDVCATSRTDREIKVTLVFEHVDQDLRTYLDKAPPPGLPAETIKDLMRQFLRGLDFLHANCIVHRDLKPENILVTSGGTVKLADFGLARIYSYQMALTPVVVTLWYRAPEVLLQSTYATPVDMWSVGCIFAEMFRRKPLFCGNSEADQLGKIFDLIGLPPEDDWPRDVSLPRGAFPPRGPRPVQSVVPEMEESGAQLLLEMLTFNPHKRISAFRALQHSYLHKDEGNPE
cdk4/cyclin D1, sequence (P24385 whole entry partner): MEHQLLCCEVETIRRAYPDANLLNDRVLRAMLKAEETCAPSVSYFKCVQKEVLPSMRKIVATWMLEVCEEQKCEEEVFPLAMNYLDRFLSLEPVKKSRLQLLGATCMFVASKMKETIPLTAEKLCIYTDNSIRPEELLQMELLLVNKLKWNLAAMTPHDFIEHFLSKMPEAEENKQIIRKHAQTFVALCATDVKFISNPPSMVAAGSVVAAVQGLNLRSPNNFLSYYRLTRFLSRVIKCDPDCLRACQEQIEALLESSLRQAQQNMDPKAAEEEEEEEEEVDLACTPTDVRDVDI

cdk2/cyclin E = cdk2/cyclin E (Homo sapiens, UniProt P24941); assay: Cyclin-dependent kinase assay, cdk2/cyclin E; details: CDK2 IC50, nM, GST-pRb substrate, 10 µM ATP

cdk1/cyclin B, sequence (P06493 whole entry): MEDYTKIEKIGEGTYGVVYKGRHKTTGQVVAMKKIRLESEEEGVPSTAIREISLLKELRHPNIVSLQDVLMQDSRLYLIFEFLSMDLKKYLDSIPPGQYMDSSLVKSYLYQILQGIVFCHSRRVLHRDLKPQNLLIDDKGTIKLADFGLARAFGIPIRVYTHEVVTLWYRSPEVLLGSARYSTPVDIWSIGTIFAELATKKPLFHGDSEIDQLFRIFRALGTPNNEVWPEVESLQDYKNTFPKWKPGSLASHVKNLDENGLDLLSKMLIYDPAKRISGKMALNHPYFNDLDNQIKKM
cdk1/cyclin B, sequence (P14635 whole entry partner): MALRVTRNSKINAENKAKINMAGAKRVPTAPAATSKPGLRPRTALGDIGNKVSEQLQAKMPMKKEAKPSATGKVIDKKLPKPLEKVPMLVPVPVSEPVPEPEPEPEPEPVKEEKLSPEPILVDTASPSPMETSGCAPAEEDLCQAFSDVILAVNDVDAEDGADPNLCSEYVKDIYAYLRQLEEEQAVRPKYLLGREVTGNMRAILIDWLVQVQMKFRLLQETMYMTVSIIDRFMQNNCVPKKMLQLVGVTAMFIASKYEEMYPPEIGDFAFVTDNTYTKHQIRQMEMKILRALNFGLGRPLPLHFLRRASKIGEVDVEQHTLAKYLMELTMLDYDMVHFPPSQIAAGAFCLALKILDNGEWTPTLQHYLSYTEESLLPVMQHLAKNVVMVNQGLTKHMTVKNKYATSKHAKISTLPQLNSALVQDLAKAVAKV

IC50 (cdk1/cyclin B) [nM]	IC50 (MDA-MB-435) [µM]	IC50 (PC-3) [µM]	IC50 (cdk4/cyclin D1) [nM]	IC50 (cdk2/cyclin E) [nM]	Compound
101	1.56	1.53	523	155	N[C@H]1CC[C@H](Nc2nc(NC3CCN(C(=O)c4ccc(Cl)cc4Cl)CC3)c3ncn(C4CCCC4)c3n2)CC1 [compound 78, trans-1-{4-[2-(4-Amino-cyclohexylamino)-9-cyclopentyl-9H-purin-6-ylamino]-piperidin-1-yl}-1-(2,4-dichloro-phenyl)-methanone]
48	1.38	0.98	766	55	C/C=C/C(=O)N1CCC(Nc2nc(N[C@H]3CC[C@H](N)CC3)nc3c2ncn3C2CCCC2)CC1 [compound 35, trans (E)-1-{4-[2-(4-Amino-cyclohexylamino)-9-cyclopentyl-9H-purin-6-ylamino]-piperidin-1-yl}-but-2-en-1-one dihydrochloride]
50	0.33	0.38	6	28	CCOC(=O)c1cccc(NC(=O)N2CCC(Nc3nc(N[C@H]4CC[C@H](N)CC4)nc4c3ncn4C3CCCC3)CC2)c1 [compound 195, trans-3-[(1-{4-[2-(4-Amino-cyclohexylamino)-9-cyclopentyl-9H-purin-6-ylamino]-piperidin-1-yl} -methanoyl)-amino]-benzoic acid ethyl ester dihydrochloride]
24	5.46	4.84	189	53	COc1ccc(CC(=O)N2CCC(Nc3nc(N[C@H]4CC[C@H](N)CC4)nc4c3ncn4C3CCCC3)CC2)cc1OC [compound 32, trans 1-{4-[2-(4-Amino-cyclohexylamino)-9-cyclopentyl-9H-purin-6-ylamino]-piperidin-1-yl}-2-(3,4-dimethoxy-phenyl)-ethanone dihydrochloride]
170	1.53	1.9	986	41	N[C@H]1CC[C@H](Nc2nc(NC3CCN(C(=O)Nc4c(F)cccc4C(F)(F)F)CC3)c3ncn(C4CCCC4)c3n2)CC1 [compound 201, trans-4-[2-(4-Amino-cyclohexylamino)-9-cyclopentyl-9H-purin-6-ylamino]-piperidine-1-carboxylic acid (2-fluoro-6-trifluoromethyl-phenyl)-amide dihydrochloride]
72	3.09	3.29	764	50	COCC(=O)N1CCC(Nc2nc(N[C@H]3CC[C@H](N)CC3)nc3c2ncn3C2CCCC2)CC1 [compound 65, trans-1-{4-[2-(4-Amino-cyclohexylamino)-9-cyclopentyl-9H-purin-6-ylamino]-piperidin-1-yl}-2-methoxy-ethanone dihydrochloride]
18	0.64	1.15	382	32	N[C@H]1CC[C@H](Nc2nc(NC3CCN(S(=O)(=O)c4ccc5ccccc5c4)CC3)c3ncn(C4CCCC4)c3n2)CC1 [compound 116, trans-N^2-(4-Amino-cyclohexyl)-9-cyclopentyl-N^6-[1-(naphthalene-2-sulfonyl)-piperidin-4-yl]-9H-purine-2,6-diamine dihydrochloride]
100	0.89	1.48	70	17	CCCS(=O)(=O)N1CCC(Nc2nc(N[C@H]3CC[C@H](N)CC3)nc3c2ncn3C2CCCC2)CC1 [compound 131, trans-N^2-(4-Amino-cyclohexyl)-N^6-[1-(propane-1-sulfonyl)-piperidin-4-yl]-9-cyclopentyl-9H-purine-2,6-diamine dihydrochloride]
40	1.17	0.88	934	80	CCC(=O)N1CCC(Nc2nc(N[C@H]3CC[C@H](N)CC3)nc3c2ncn3C2CCCC2)CC1 [compound 53, trans-1-{4-[2-(4-Amino-cyclohexylamino)-9-cyclopentyl-9H-purin-6-ylamino]-piperidin-1-yl}-propan-1-one dihydrochloride]
164	2.98	2.99	17	514	N[C@H]1CC[C@H](Nc2nc(NC3CCN(C(=O)c4c(Cl)cccc4Cl)CC3)c3ncn(C4CCCC4)c3n2)CC1 [compound 14, trans-1-{4-[2-(4-Amino-cyclohexylamino)-9-cyclopentyl-9H-purin-6-ylamino]-piperidin-1-yl}-1-(2,6-dichloro-phenyl)-methanone]
83	0.69	0.65	91	37	CC(C)CC(=O)N1CCC(Nc2nc(N[C@H]3CC[C@H](N)CC3)nc3c2ncn3C2CCCC2)CC1 [compound 60, trans-1-{4-[2-(4-Amino-cyclohexylamino)-9-cyclopentyl-9H-purin-6-ylamino]-piperidin-1-yl}-3-methyl-butan-1-one dihydrochloride]
82	0.29	0.38	825	87	N[C@H]1CC[C@H](Nc2nc(NC3CCN(C(=O)Nc4ccccc4C(F)(F)F)CC3)c3ncn(C4CCCC4)c3n2)CC1 [compound 158, trans-4-[2-(4-Amino-cyclohexylamino)-9-cyclopentyl-9H-purin-6-ylamino]-piperidine-1-carboxylic acid (2-trifluoromethyl-phenyl)-amide dihydrochloride]
1000	1.49	1.89	400	237	CC(C)(C)NC(=O)N1CCC(Nc2nc(N[C@H]3CC[C@H](N)CC3)nc3c2ncn3C2CCCC2)CC1 [compound 192, trans-4-[2-(4-Amino-cyclohexylamino)-9-cyclopentyl-9H-purin-6-ylamino]-piperidine-1-carboxylic acid tert-butyl-amide dihydrochloride]
85	1.36	1.69	357	94	C[C@@H](NC(=O)N1CCC(Nc2nc(N[C@H]3CC[C@H](N)CC3)nc3c2ncn3C2CCCC2)CC1)c1ccccc1 [compound 160, trans-4-[2-(4-Amino-cyclohexylamino)-9-cyclopentyl-9H-purin-6-ylamino]-piperidine-1-carboxylic acid ((R)-1-phenyl-ethyl)-amide dihydrochloride]
48	0.48	0.35	852	84	N[C@H]1CC[C@H](Nc2nc(NC3CCN(C(=O)c4cc(C(F)(F)F)ccc4F)CC3)c3ncn(C4CCCC4)c3n2)CC1 [compound 69, trans-1-{4-[2-(4-Amino-cyclohexylamino)-9-cyclopentyl-9H-purin-6-ylamino]-piperidin-1-yl}-1-(2-fluoro-5-trifluoromethyl-phenyl)-methanone]

Compound	IC50 (cdk1/cyclin B) [nM]	IC50 (MDA-MB-435) [µM]	IC50 (PC-3) [µM]	IC50 (cdk4/cyclin D1) [nM]	IC50 (cdk2/cyclin E) [nM]
CCCCCCCOc1ccc(C(=O)N2CCC(Nc3nc(N[C@H]4CC[C@H](N)CC4)nc4c3ncn4C3CCCC3)CC2)cc1 [compound 19, trans-1-{4-[2-(4-Amino-cyclohexylamino)-9-cyclopentyl-9H-purin-6-ylamino]-piperidin-1-yl}-1-(4-heptoxy-phenyl)-methanone]	62	0.58	0.96	883	567
